Tests used:
[1] = Absorption spectrum / absorbance at 780 nm with a spectrophotometer; format: physicochemical; details: ICG 0.5 mg/mL, gelatin 40 mg/mL; FIG. 2, FIG. 5
Method: The absorption spectrum of the obtained gelatin-ICG complex 1 was measured with a spectrophotometer (Beckman Coulter, Inc.).
The absorption spectrum and the absorbance at 780 nm of the gelatin-ICG complex 1 are illustrated in FIGS. 2 and 3, respectively. The absorption spectrum and the absorbance at 780 nm of ICG are also illustrated in FIGS. 2 and 3, respectively, as a comparative example.
The gelatin-ICG complex 1, 3, 4, 5, or 6 (final concentration, 40 or 100 mg/mL) and an ICG solution (final concentration, 0.5 mg/mL) were mixed to obtain a gelatin-ICG complex.
The complexes and the mixtures were prepared at final concentrations of ICG and a gelatin of 0.5 mg/mL and 40 mg/mL, respectively.
An ICG solution (final concentration, 0.1 mg/mL) and a gelatin (weight-average molecular weight, 10,000; final concentration, 100 m g/mL) were mixed to obtain a mixture (gelatin-ICG mixture) of a gelatin and ICG. The absorption spectrum of the obtained gelatin-ICG mixture was measured with a spectrophotometer. The results are illustrated in FIG. 19.

[2] = system: cancer-bearing mouse having a cancer site in the left hindlimb; assay: In vivo kinetics by fluorescent imaging in cancer-bearing mouse; details: caudal vein dosing, ICG 0.5 mg/ml; FIG. 17A-C, 18A
Method: After the gelatin-ICG complex 1 was dosed from the caudal vein of a cancer-bearing mouse having a cancer site in the left hindlimb, images were taken over time with a fluorescent imaging apparatus (GE Healthcare), and in vivo kinetics of the gelatin-ICG complex 1 were evaluated.
Furthermore, as a comparative example, ICG alone at the same concentration (0.5 mg/ml) was intravenously dosed to a cancer-bearing mouse, and a similar evaluation was performed. Changes with time in the fluorescent imaging after dosing the gelatin-ICG complex 1 are illustrated in FIG. 17A. Changes with time after dosing ICG alone are illustrated in FIG. 17B. Changes with time in the fluorescence intensity in these cancer tissues are illustrated in FIG. 17C.
A gelatin-ICG complex 7 including a gelatin derivative 7 (DSPE 67% introduced) fluorescently labeled with Cy5.5 and ICG was prepared and dosed to a cancer-bearing mouse in the same manner as in Example 15 to evaluate in vivo kinetics of the gelatin derivative 7 itself. Changes with time in the fluorescent imaging are illustrated in FIG. 18A. Furthermore, ICG alone at the same concentration was dosed to a cancer-bearing mouse as a comparative example. Changes with time in the fluorescent imaging are illustrated in FIG. 18B.

[3] = Stability: absorption spectrum with time in PBS or PBS containing albumin at 37° C.; format: physicochemical
Method: To evaluate stability of the gelatin-ICG complex 1, the gelatin-ICG complex 1 was allowed to stand in PBS (phosphate buffered saline) or in PBS containing albumin (40 mg/mL) at 37° C., and the absorption spectrum was measured with time.

Compound: CC1(C)C(/C=C/C=C/C=C/C=C2/N(CCCCS(=O)(=O)[O-])c3ccc4ccccc4c3C2(C)C)=[N+](CCCCS(=O)(=O)[O-])c2ccc3ccccc3c21.[Na+] [ICG, indocyanine green]
- absorption spectrum (associate around 700 nm, monomer around 780 nm) [1]: absorbance on the long wavelength side was low
- distribution of ICG to cancer tissue, fluorescence with time [2]: distributed to the cancer tissue temporarily after dosing ICG alone and eliminated with time
- changes with time in absorption spectrum / absorbance (λmax) ([3]; PBS containing albumin (40 mg/mL)): stability was slightly inferior as compared with the stability of the gelatin-ICG complex 1
- changes with time in absorption spectrum / absorbance (λmax) ([3]; PBS without albumin): changed greatly with time
